According to ChEMBL document CHEMBL5291721, “A preclinical secondary pharmacology resource illuminates target-adverse drug reaction associations of marketed drugs” (Nat Commun, 2023):

Experiments:
[1] = biological target: T1, Prostaglandin G/H synthase 1 (Homo sapiens, UniProt P23219); format: functional
[2] = biological target: T2, Muscarinic acetylcholine receptor M1 (Homo sapiens, UniProt P11229); format: functional, cell-based
T2 sequence (P11229 whole entry): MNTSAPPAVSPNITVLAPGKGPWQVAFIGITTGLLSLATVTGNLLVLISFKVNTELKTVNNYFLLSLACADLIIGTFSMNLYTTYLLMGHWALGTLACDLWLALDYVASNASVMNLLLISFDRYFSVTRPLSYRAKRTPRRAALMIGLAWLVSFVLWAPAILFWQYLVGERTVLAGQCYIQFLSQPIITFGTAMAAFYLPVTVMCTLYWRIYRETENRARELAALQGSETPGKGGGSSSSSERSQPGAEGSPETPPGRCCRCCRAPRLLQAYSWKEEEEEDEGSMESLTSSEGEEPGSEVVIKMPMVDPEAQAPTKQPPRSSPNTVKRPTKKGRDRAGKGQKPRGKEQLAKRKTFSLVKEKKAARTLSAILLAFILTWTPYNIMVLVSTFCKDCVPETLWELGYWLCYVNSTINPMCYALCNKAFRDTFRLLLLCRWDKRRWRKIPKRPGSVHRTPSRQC

Histamine H3 receptor = Histamine H3 receptor (Homo sapiens, UniProt Q9Y5N1)
Progesterone receptor = biological target: T3, Progesterone receptor (Homo sapiens, UniProt P06401)
T3 sequence (P06401 whole entry): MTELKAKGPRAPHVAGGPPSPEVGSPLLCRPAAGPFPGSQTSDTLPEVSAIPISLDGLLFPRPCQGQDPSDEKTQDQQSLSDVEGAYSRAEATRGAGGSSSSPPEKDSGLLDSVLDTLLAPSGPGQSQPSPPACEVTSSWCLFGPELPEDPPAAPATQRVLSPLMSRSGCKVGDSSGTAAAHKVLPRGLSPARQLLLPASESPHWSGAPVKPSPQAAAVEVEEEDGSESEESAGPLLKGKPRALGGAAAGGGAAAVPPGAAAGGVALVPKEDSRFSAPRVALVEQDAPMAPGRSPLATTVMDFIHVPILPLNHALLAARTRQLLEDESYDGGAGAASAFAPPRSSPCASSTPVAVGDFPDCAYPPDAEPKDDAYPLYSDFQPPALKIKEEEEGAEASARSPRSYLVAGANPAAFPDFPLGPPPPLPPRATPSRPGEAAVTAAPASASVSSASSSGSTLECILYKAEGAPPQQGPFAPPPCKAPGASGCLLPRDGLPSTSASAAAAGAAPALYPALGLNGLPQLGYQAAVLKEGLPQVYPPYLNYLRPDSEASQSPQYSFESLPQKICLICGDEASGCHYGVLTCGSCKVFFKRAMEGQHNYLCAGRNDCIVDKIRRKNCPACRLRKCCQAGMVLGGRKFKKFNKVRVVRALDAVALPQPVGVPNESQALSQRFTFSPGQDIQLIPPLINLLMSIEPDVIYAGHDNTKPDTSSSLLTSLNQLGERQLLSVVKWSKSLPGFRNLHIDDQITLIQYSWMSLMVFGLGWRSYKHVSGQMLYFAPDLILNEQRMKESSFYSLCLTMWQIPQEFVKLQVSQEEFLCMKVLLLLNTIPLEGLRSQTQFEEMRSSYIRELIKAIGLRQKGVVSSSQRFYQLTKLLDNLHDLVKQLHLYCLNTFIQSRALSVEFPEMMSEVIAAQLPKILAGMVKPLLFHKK

Thromboxane A2 receptor = biological target: T4, Thromboxane A2 receptor (Homo sapiens, UniProt P21731); format: functional, cell-based
T4 sequence (P21731 whole entry): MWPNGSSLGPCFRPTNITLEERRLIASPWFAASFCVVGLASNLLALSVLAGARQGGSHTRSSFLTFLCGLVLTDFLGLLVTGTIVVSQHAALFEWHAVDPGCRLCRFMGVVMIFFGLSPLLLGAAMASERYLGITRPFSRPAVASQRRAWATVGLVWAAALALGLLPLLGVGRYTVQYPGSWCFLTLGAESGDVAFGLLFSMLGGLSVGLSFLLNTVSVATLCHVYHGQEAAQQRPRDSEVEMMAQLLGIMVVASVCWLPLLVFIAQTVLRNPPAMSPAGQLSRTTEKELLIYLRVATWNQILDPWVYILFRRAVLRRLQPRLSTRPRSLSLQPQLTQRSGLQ

[3] = biological target: Voltage-gated inwardly rectifying potassium channel KCNH2 (Homo sapiens, UniProt Q12809); format: functional; settings: read-out: AC50
[4] = biological target: 5-hydroxytryptamine receptor 2B (Homo sapiens, UniProt P41595); format: functional, cell-based
Acetylcholinesterase = Acetylcholinesterase (Homo sapiens, UniProt P22303); format: functional
D(3) dopamine receptor = D(3) dopamine receptor (Homo sapiens, UniProt P35462)
Prothrombin = Prothrombin (Homo sapiens, UniProt P00734); format: functional
[5] = biological target: Vascular endothelial growth factor receptor 2 (Homo sapiens, UniProt P35968); format: functional
[6] = biological target: cGMP-inhibited 3',5'-cyclic phosphodiesterase 3A (Homo sapiens, UniProt Q14432); format: functional
[7] = biological target: T5, Amine oxidase [flavin-containing] A (Homo sapiens, UniProt P21397); format: functional
T5 sequence (P21397 whole entry): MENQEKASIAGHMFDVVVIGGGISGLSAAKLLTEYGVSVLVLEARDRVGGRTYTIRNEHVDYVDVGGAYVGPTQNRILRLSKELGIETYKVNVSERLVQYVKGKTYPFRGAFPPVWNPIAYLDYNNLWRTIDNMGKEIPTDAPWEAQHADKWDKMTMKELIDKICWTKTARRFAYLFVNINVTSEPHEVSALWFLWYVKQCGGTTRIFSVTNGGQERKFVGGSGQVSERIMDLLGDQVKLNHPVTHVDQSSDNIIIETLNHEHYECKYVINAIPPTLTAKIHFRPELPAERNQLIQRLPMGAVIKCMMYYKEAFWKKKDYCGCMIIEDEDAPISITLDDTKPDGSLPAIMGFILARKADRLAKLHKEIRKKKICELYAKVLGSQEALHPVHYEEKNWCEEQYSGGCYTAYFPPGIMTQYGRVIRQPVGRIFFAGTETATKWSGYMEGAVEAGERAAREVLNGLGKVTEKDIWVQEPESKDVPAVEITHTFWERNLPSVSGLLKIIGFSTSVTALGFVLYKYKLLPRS

[8] = biological target: Sodium-dependent serotonin transporter (Homo sapiens, UniProt P31645)
[9] = biological target: T1, Prostaglandin G/H synthase 1; format: functional; remark: listed apart in the source

Measured: AC50
Note: assay procedure not described here.

5-hydroxytryptamine receptor 2B, sequence (P41595 whole entry): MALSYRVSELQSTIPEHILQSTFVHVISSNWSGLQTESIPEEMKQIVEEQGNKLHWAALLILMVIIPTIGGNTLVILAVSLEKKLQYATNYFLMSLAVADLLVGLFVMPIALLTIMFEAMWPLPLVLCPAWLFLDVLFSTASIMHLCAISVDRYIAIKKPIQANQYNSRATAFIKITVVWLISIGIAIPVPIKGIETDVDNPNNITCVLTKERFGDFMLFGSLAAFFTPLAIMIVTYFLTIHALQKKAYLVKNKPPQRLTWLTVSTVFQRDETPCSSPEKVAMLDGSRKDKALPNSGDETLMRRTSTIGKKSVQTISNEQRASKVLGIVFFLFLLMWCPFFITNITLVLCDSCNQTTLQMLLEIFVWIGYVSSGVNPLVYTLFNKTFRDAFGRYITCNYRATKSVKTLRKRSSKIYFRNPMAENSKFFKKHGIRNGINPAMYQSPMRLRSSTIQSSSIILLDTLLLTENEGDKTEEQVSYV
T1 sequence (P23219 whole entry): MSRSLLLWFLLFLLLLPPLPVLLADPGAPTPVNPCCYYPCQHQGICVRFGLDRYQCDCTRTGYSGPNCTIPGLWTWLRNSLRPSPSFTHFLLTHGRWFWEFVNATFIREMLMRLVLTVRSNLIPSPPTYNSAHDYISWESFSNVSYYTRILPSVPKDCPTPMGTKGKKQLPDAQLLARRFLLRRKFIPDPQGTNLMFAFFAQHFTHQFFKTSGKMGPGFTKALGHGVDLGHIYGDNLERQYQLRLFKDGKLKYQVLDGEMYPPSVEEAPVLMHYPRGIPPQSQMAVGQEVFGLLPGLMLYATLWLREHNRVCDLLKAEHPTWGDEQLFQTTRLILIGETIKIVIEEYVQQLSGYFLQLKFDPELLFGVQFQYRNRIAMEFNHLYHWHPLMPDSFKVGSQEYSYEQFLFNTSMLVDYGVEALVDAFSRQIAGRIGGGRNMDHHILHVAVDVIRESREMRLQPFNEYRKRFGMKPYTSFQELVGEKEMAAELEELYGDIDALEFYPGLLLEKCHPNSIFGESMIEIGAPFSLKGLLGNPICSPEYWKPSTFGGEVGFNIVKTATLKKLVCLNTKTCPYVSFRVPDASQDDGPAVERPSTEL
Histamine H3 receptor, sequence (Q9Y5N1 whole entry): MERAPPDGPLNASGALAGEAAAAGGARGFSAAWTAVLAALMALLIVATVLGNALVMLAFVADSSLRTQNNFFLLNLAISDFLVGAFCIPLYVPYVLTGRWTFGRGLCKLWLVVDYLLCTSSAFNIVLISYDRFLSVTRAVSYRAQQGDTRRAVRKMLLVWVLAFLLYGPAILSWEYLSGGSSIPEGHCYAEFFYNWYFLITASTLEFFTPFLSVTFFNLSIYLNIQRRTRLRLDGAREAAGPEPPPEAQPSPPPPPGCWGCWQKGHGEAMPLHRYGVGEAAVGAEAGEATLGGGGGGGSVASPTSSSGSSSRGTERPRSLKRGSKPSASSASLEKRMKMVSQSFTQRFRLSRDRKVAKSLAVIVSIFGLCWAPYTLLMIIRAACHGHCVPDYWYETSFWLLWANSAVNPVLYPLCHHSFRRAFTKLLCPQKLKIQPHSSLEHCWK
Sodium-dependent serotonin transporter, sequence (P31645 whole entry): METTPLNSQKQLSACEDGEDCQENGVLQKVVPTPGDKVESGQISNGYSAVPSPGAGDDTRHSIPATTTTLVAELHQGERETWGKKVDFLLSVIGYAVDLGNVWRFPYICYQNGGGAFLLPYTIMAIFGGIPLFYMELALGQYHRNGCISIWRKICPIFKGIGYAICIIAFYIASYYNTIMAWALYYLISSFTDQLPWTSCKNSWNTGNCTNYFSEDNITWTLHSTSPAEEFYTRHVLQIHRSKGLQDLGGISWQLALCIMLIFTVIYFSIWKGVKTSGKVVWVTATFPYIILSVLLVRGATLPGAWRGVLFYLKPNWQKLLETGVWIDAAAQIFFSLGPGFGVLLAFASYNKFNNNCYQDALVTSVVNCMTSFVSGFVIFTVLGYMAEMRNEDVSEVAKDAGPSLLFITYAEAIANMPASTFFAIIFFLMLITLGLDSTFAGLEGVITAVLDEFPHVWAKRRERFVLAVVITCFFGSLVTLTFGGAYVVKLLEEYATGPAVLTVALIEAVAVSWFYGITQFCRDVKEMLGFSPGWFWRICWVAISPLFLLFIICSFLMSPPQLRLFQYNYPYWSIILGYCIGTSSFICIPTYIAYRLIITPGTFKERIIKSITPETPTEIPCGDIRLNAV
Acetylcholinesterase, sequence (P22303 whole entry): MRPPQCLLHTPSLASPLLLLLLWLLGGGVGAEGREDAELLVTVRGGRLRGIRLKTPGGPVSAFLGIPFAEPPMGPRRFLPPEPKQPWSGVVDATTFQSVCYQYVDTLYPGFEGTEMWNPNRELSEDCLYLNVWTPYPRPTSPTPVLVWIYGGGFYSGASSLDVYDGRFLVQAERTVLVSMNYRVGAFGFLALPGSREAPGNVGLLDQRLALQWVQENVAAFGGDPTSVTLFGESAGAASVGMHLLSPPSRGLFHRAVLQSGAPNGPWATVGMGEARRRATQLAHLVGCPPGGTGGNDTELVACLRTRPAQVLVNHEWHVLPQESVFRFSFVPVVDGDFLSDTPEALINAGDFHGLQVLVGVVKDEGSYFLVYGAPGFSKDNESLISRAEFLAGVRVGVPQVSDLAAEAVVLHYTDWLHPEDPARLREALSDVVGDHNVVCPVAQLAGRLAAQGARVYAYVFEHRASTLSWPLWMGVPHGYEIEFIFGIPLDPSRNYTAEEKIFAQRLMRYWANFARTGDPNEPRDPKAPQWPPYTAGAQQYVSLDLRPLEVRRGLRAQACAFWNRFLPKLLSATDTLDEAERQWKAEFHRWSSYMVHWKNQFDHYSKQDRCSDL
Voltage-gated inwardly rectifying potassium channel KCNH2, sequence (Q12809 whole entry): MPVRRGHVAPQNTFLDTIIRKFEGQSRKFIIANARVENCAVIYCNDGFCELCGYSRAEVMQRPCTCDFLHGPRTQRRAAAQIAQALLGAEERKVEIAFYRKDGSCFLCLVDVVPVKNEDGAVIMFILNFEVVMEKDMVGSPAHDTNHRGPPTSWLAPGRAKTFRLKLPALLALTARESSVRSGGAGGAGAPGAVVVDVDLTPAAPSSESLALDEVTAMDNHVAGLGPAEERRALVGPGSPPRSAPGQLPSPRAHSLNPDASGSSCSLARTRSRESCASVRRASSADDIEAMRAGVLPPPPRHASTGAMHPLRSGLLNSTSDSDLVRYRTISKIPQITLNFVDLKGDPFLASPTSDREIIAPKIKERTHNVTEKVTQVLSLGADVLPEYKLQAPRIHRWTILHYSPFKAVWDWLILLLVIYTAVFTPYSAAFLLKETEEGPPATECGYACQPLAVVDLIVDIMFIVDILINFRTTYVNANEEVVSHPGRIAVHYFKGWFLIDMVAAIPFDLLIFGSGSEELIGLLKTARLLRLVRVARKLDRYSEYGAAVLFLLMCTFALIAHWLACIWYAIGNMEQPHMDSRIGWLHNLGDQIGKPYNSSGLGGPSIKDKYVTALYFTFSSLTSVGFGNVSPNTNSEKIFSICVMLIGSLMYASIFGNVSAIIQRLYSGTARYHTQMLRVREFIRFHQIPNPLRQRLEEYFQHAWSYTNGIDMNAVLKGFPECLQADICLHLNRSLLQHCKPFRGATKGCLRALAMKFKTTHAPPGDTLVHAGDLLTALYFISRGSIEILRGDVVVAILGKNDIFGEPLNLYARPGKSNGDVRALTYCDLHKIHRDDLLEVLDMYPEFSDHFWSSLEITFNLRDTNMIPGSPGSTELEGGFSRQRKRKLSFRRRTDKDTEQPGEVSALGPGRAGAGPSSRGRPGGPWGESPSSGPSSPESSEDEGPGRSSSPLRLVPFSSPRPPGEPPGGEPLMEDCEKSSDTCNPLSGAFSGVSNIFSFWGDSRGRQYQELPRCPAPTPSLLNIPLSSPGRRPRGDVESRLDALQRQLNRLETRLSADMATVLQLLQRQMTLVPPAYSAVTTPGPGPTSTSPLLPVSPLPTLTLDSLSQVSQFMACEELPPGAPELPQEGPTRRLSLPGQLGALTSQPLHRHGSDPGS
cGMP-inhibited 3',5'-cyclic phosphodiesterase 3A, sequence (Q14432 whole entry): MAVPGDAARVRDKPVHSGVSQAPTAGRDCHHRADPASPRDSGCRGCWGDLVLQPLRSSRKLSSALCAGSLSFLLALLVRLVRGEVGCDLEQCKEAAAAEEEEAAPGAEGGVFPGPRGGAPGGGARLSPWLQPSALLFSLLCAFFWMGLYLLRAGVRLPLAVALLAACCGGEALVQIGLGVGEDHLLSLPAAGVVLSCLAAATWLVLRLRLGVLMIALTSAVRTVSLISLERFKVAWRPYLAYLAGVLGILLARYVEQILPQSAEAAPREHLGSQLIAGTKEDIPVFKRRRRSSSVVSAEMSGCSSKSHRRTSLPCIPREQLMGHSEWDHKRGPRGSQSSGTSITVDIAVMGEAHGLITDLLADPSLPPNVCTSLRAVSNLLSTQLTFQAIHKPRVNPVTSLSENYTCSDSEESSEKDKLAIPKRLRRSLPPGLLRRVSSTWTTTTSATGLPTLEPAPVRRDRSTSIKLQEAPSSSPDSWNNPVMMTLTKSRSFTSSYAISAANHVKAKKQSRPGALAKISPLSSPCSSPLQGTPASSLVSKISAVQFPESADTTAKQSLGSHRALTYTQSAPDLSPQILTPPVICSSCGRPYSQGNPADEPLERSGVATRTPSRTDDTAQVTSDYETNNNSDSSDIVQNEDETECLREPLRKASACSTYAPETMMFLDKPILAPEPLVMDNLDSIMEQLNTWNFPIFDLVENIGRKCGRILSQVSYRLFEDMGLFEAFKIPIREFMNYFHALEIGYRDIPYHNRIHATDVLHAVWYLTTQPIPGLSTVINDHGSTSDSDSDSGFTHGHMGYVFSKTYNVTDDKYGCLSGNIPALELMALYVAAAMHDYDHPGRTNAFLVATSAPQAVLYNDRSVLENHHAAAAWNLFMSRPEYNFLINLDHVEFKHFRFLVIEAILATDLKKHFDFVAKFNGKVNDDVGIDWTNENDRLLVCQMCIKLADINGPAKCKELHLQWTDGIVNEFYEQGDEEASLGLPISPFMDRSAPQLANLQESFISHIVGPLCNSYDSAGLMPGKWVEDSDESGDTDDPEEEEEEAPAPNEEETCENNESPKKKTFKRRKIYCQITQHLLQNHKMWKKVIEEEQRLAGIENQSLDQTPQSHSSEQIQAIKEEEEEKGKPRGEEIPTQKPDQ

CC(C)(C)CC(C)(C)c1ccc(O)c(Cc2ccc(Cl)cc2Cl)c1 [CLOFOCTOL]
11 µM: [3]
1.15 µM: Progesterone receptor
2.56 µM: [1]
1.48 µM: D(3) dopamine receptor
5.43 µM: [8]
5.81 µM: [6]
> 10 µM: [2]
29.2 µM: [9]
> 30 µM: all other assays above

Clc1ccc(C(OCCN2CCCCC2)c2ccccc2)cc1 (stereo not given) [CLOPERASTINE]
1.05 µM: D(3) dopamine receptor
0.551 µM: [2]
15.4 µM: [8]
0.2 µM: [3]
> 30 µM: all other assays above

CC(=O)OCC(=O)[C@@]1(O)CC[C@H]2[C@@H]3CCC4=CC(=O)C=C[C@]4(C)[C@@]3(Cl)[C@@H](Cl)C[C@@]21C [DICHLORISONE ACETATE]
0.173 µM: Progesterone receptor
> 30 µM: all other assays above

CC(C)C[C@H]1C(=O)N2CCC[C@H]2[C@]2(O)O[C@](NC(=O)[C@@H]3C[C@@H]4c5cccc6[nH]cc(c56)C[C@H]4N(C)C3)(C(C)C)C(=O)N12 [DIHYDROERGOCRYPTINE]
18.4 µM: [1]
27.4 µM: [9]
0.202 µM: D(3) dopamine receptor
> 30 µM: all other assays above

CCN(CC)CCOC(=O)C(c1ccccc1)C1CCCCC1 (stereo not given) [DROFENINE]
0.0078 µM: [2]
0.217 µM: D(3) dopamine receptor
4.7 µM: [3]
> 30 µM: all other assays above

CC(=O)Oc1ccc2c(c1)CC[C@@H]1[C@@H]2CC[C@]2(C)[C@@H](O)CC[C@@H]12 [ESTRADIOL ACETATE]
7.24 µM: [2]
> 3 µM: [9]
0.209 µM: Progesterone receptor
> 30 µM: all other assays above

CCOc1ccccc1C(N)=O [ETHENZAMIDE]
> 30 µM: all assays above

CCOC(=O)/C=C1\SC(N2CCCCC2)C(=O)N1C (stereo not given) [ETOZOLIN]
> 30 µM: all assays above

CCCCOC(=O)C(=O)[C@H]1[C@H](C)C[C@H]2[C@@H]3C[C@H](F)C4=CC(=O)C=C[C@]4(C)[C@H]3[C@@H](O)C[C@@]21C [FLUOCORTIN BUTYL]
0.711 µM: Progesterone receptor
19.8 µM: [2]
16 µM: [3]
> 30 µM: all other assays above

N[C@H]1C(O)O[C@H](CO)[C@@H](O)[C@@H]1O (stereo not given in full) [GLUCOSAMINE]
> 30 µM: all assays above

CCN(CC)CCNc1ccc(CO)c2sc3ccccc3c(=O)c12 [HYCANTHONE]
3.6 µM: [3]
16 µM: [8]
2.14 µM: Histamine H3 receptor
19.5 µM: D(3) dopamine receptor
17.6 µM: [2]
> 30 µM: all other assays above

CC[C@H]1CN2CC[C@H]1C[C@H]2[C@H](O)c1ccnc2ccc(OC)cc12 [HYDROQUININE]
3.95 µM: [8]
10 µM: [3]
> 30 µM: all other assays above
